Measurements reported in patent publication US7951775B2, “Methods and pharmaceutical compositions for GnRH-I and GnRH-II modulation of T-cell activity, adhesion, migration and extravasation” (priority 2001, dated 2011).
“Also recorded” adds a separate entry of the source.

Legend:
Type in all cases: cell-based
[1] = tested on: normal human T-cells; assay: Double immunofluorescence staining (FACS) for surface 67 kDa laminin receptor and TCR; conditions: for 67 kDa LR and TCR positive (double positive) cell population: 10 nM, 48 hours, 37° C., untreated 35.7%; for surface expression of the 67 kDa LR, in words: vs untreated normal human T-cells
Description: Normal human T-cells, isolated from fresh peripheral blood lymphocytes, or EL-4 T-lymphocyte cells were subjected to double immunofluorescence staining, using a mouse monoclonal anti-67 kDa LR antibody (100 μl of 1:20 dilution per 1×10^6 cells/tube; 30 minutes on ice), or normal mouse sera for control. The cells were then stained with an FITC-conjugated goat anti-mouse IgG (100 μl of 1:100 dilution), and PE-conjugated mouse anti-human TCR αβ mAb (2 μl of stock). Cells that were stained only with the second and third antibodies served as additional negative controls. Fluorescence profiles were recorded in a FACSORT. To determine whether GnRH-II and GnRH-I trigger not only the gene transcription but also the surface expression of the 67 kDa LR, normal human T-cells were treated with either GnRH-II or GnRH-I for 18-66 h and subjected to double immunofluorescence staining using a monoclonal antibody (mAb) that is specific for the 67 kDa LR, and a phycoerythrin (PE)-conjugated anti-TCRαβ mAb (to confirm the T-cell origin of the cells). FIGS. 2A-2C show the staining for the untreated, GnRH-I treated and GnRH-II treated T-cells, respectively. The FACS profiles can be interpreted by division according to four categories: 1. Negative staining for both mAbs (double negative, lower left quadrant); 2. Single positive staining only with the anti-LR mAb (lower right quadrant), 3. Single positive staining only with the anti-TCR mAb (upper left quadrant); 4. Double positive staining with both mAbs (upper right quadrant). […] In different experiments, each using freshly isolated T-cells from a different human donor, both GnRH II and GnRH I repeatedly elevated the laminin receptor expression level, but the magnitude of elevation varied within a range of 6-40%. Such variations between T-cell populations originating from different donors are often observed in respect to various T-cell features and functions.

[2] = tested on: normal human T-cells; assay: Double immunofluorescence staining for VLA-6 laminin-binding integrin and TCR; conditions: untreated cells about 75% double positive; data not shown
Excerpt: Finally, the possibility that the stimulation of normal human T-cells by either GnRH-I, GnRH-II or anti-CD3+ anti-CD28 mAbs, elevates not only the non-integrin 67 kDa LR but also the expression level of the VLA-6 laminin-binding integrin (known to be expressed on T-cells) was investigated. […] Thus stimulation by GnRH-II and GnRH-I (as well as TCR-activation) primarily increases-the-protein surface expression of the non-integrin 67 kDa LR, but not of the VLA-6 laminin binding integrin.

[3] = tested on: normal human T-cells; assay: T-cell adhesion to laminin assay; conditions: 10 nM, 48 hours pretreatment; PMA 10 ng/ml positive control; four donors
Description: Adhesion of T-cells to laminin was assayed as follows: normal human T-cells, purified from a fresh blood sample, were suspended (1×10^6 cells/ml) in rest medium (RPMI-1640, supplemented with 10% fetal calf serum (Sigma Chemical Co., St. Louis, Mo.), 1% antibiotics, 1% glutamine (Biological Industries, Beit Haemek, Israel) and 0.4% fungizone (GibcoBRL, Life Technologies Ltd., Paisley, Scotland)). The cells were then supplemented with 10 nM GnRH-I or GnRH-II and incubated for variable periods of time (0.5-72 hours, 37° C., 7.5% CO2 humidified incubator). Following incubation the cells were washed and resuspended in adhesion medium (RPMI-1640 supplemented with 0.1% bovine serum albumin (BSA, Sigma)). […] The optical density (OD) was measured at 405 nm in a standard ELISA reader. […]
To study the functional consequences of the increase in the 67 kDa LR expression level following GnRH stimulation, the ability of GnRH-treated normal human T-cells to adhere to laminin was assessed. […] In parallel, increasing numbers of untreated cells were seeded on separate plates, in order to establish a standard curve, enabling the relation of results obtained in units of fluorescence intensity (OD) to actual number of cells.

Molecule	67 kDa LR and TCR positive (double positive) cell population [1]	surface expression of the 67 kDa LR, in words [1]	expression level of VLA-6 laminin-binding integrin [2]	T-cell adhesion to laminin [3]
pGlu-His-Trp-Ser-Tyr-Gly-Leu-Arg-Pro-Gly-NH2 [GnRH-I]	72.4%	significantly increased	unaffected	as efficiently as PMA; also recorded: as markedly as does PMA
GnRH-II: unique ten amino acid long neuropeptide, 70% homologous in peptide structure to GnRH-I, encoded by its own gene (peptide) peptide: QHWSHGWYPGGKRALSSAQDPQNALRPPGRALDTAAGSPVQTAHGLPSDALAPLDDSMPWEGRTTAQWSLHRKRHLARTLLTAAREPRPAPPSSNKV	74.3%	significantly increased	unaffected	as efficiently as PMA; also recorded: as markedly as does PMA
